# Reference: US20260098034A1, “2H-BENZOTRIAZOLE DERIVATIVE, PREPARATION METHOD THEREFOR, AND PHARMACEUTICAL COMPOSITION CONTAINING SAME” (ORXES THERAPEUTICS CO., LTD., priority 2022, published 2026)
# “And” between values parts separate entries of the source, which are not always exact repeats. Equal entries are not always repeated. Structures can show the parent of a compound that is named as a salt. Where two headings read alike, the source gives them in different places.
# Columns and labels:
# Wistar rats = assay: PCA-induced Wistar rat premature ejaculation model; assay type: in vivo; settings: for Actual number of ejaculations / Number of the seminal vesicle contractions / Seminal vesicle basal pressure / Seminal vesicle peak pressure / The first contraction latency period / The first ejaculation latency period: within 30 min after PCA induction, individual rats
# Protocol: Male Wistar rats with a weight of about 300 g were adapted for one week before the experiment was started. On the day of the experiment, the animals were anesthetized with a combination of 20 mg/kg of Zoletil 50 via i.p. and 8 mg/kg of xylazine via i.p., and the body temperature was maintained at 37° C. with a thermal insulation blanket. Exposed common carotid artery was intubated with PE50 to monitor real-time arterial pressure (i.e. systolic pressure, diastolic pressure, and mean arterial pressure). The seminal vesicles and cavernosal muscles of the animals were exposed. The stable baselines of the pressure of the seminal vesicle and the cavernosal myoelectricity were recorded for 10 min. Then the drug was administered through the tail vein for the dapoxetine group, and the tested compound was orally administered for the tested compound group (for the PE model group, the drug was replaced with a solvent). After 1 min, for inducing PE modeling, 5 mg/kg of PCA was injected intraperitoneally, and then the seminal vesicle pressure curve and the change of bulbospongiosus EMG were continuously recorded for 30 min.
# • A. Within 30 min, the actual number of ejaculations of the animals and the latency period of the first ejaculation; • B. Within 30 min, the number of the seminal vesicle contractions, the latency period of the first contraction, the basal pressure and the peak pressure.
# The experimental data were expressed by means±S.E.M., and statistical analysis was performed by GraphPad Prism 7.0 software. Single factor variance analysis (One-way ANOVA) was used for comparison between multiple groups, and Dunnett't-test was used for statistical analysis in Post hoc test. Student's t-test was used for comparison between two groups. P<0.05 was considered as a significant difference.
# [1] = 1 to 2 hours before sexual intercourse, cited from earlier work
# [2] = 0.125 mg/kg p.o. + PCA 5 mg/kg i.p.
# [3] = 0.5 mg/kg p.o. + PCA 5 mg/kg i.p.
# [4] = 2 mg/kg p.o. + PCA 5 mg/kg i.p.
# [5] = Dapoxetine 2 mg/kg i.v. + PCA 5 mg/kg i.p., hydrochloride
# [6] = dapoxetine, medium or high dose of A001 to A006
smiles,measurement,setting,value
Fc1ccc2c(N3CCN(CCCCn4nc5ccccc5n4)CC3)noc2c1 [Compound A006],Actual number of ejaculations,Wistar rats; [2],0 and 1 and 4 (2×) and 5
same,Number of the seminal vesicle contractions,Wistar rats; [2],2 (2×) and 7 (2×) and 8
same,Seminal vesicle basal pressure,Wistar rats; [2],3.93 mmHg and 3.88 mmHg and 5.98 mmHg and 5.79 mmHg and 5.18 mmHg
same,Seminal vesicle peak pressure,Wistar rats; [2],4.11 mmHg and 4.21 mmHg and 16.58 mmHg and 15.19 mmHg and 17.07 mmHg
same,The first contraction latency period,Wistar rats; [2],1453 s and 1325 s and 707 s and 758 s and 738 s
same,The first ejaculation latency period,Wistar rats; [2],1800 s and 1330 s and 877 s and 798 s and 808 s
same,Actual number of ejaculations,Wistar rats; [3],6 and 4 and 2 and 0 (2×)
same,Number of the seminal vesicle contractions,Wistar rats; [3],8 and 6 and 3 and 0 (2×)
same,Seminal vesicle basal pressure,Wistar rats; [3],5.86 mmHg and 6.06 mmHg and 5.12 mmHg and 3.91 mmHg and 4.25 mmHg
same,Seminal vesicle peak pressure,Wistar rats; [3],18.66 mmHg and 20.61 mmHg and 12.89 mmHg and 4.19 mmHg and 4.79 mmHg
same,The first contraction latency period,Wistar rats; [3],899 s and 816 s and 1022 s and 1800 s (2×)
same,The first ejaculation latency period,Wistar rats; [3],855 s and 903 s and 1175 s and 1800 s (2×)
same,Actual number of ejaculations,Wistar rats; [4],0
same,Number of the seminal vesicle contractions,Wistar rats; [4],0 (4×) and 1
same,Seminal vesicle basal pressure,Wistar rats; [4],4.66 mmHg and 4.16 mmHg and 4.65 mmHg and 4.67 mmHg and 3.98 mmHg
same,Seminal vesicle peak pressure,Wistar rats; [4],5.13 mmHg and 5.28 mmHg and 4.97 mmHg and 4.79 mmHg and 7.87 mmHg
same,The first contraction latency period,Wistar rats; [4],1800 s (4×) and 1660 s
same,The first ejaculation latency period,Wistar rats; [4],1800 s
"CN(C)[C@@H](CCOc1cccc2ccccc12)c1ccccc1 [Dapoxetine, Dapoxetine hydrochloride, reference compound]",increase of IELT,[1]; 30 mg,2.5 times
same,increase of IELT,[1]; 60 mg,3.0 times
same,Actual number of ejaculations,Wistar rats; [5],1 (2×) and 0 (2×) and 2
same,Number of the seminal vesicle contractions,Wistar rats; [5],1 (3×) and 0 and 3
same,Seminal vesicle basal pressure,Wistar rats; [5],5.16 mmHg and 4.97 mmHg and 5.37 mmHg and 5.88 mmHg and 4.96 mmHg
same,Seminal vesicle peak pressure,Wistar rats; [5],6.89 mmHg and 8.1 mmHg and 6.46 mmHg and 6.78 mmHg and 7.03 mmHg
same,The first contraction latency period,Wistar rats; [5],1448 s and 1705 s and 1800 s and 1749 s and 866 s
same,The first ejaculation latency period,Wistar rats; [5],1558 s and 1800 s (2×) and 1256 s and 967 s
same,latency period of initial seminal vesicle contraction compared with the PE model group,"Wistar rats; dapoxetine group (2 mg/kg i.v.), FIG. 4",significant increase
same,ejaculation latency period (conclusion),Wistar rats; [6],effectively prolong
same,number of ejaculations (conclusion),Wistar rats; [6],greatly reduce
